Source: patent publication US20260015358A1, “BICYCLIC DERIVATIVES, COMPOSITIONS AND USES THEREOF” (Danatlas Pharmaceuticals Co., Ltd., priority 2023, published 2026)
pIC50: −log10 of the molar value.

How the values were obtained:
[1] = biological target: T1, WRN [UniPro: Q14191 (WRN_HUMAN), N500-C946] (Homo sapiens (Human), UniProt Q14191); assay: WRN unwinding assay (FORKF DNA, fluorescence); format: biochemical; details: Table 14
[2] = biological target: T1, WRN [UniPro: Q14191 (WRN_HUMAN), N500-C946]; assay: WRN ATPase assay (ADP-Glo); format: biochemical; details: WRN enzymatic activity assay

T1 sequence (Q14191 500-946): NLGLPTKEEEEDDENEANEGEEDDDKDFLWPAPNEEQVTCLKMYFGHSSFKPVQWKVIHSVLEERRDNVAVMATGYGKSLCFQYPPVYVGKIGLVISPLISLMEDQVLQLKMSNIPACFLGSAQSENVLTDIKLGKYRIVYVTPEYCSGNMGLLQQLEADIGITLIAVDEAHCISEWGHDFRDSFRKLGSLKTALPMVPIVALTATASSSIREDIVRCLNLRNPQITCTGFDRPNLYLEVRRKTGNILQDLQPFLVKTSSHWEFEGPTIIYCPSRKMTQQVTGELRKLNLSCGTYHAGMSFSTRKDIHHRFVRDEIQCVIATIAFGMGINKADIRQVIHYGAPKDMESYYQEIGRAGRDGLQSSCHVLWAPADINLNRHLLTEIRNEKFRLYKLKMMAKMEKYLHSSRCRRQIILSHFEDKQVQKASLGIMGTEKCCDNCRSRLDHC

Row | SMILES | pIC50 [1] | pIC50 [2]
1 | CCc1c(N2CCN(C(=O)C(=O)Nc3ccno3)CC2)c(=O)n2nc(C3=CCOCC3)nc2n1CC(=O)Nc1ccc(C(F)(F)F)cc1F [Example 341, 2-(4-(2-(3,6-Dihydro-2H-pyran-4-yl)-5-ethyl-4-(2-((2-fluoro-4-(trifluoromethyl)phenyl)amino)-2-oxoethyl)-7-oxo-4,7-dihydro-[1,2,4]triazolo[1,5-a]pyrimidin-6-yl)piperazin-1-yl)-N-(isoxazol-5-yl)-2-oxoacetamide] | > 7.00 | > 7.00
2 | CCc1c(N2CCN(C(=O)CNC(=O)Cc3ccccc3)CC2)c(=O)n2nc(C3=CCOCC3)nc2n1CC(=O)Nc1ccc(C(F)(F)F)cc1Cl [Example 267, N-(2-Chloro-4-(trifluoromethyl)phenyl)-2-(2-(3,6-dihydro-2H-pyran-4-yl)-5-ethyl-7-oxo-6-(4-((2-phenylacetyl)glycyl)piperazin-1-yl)-[1,2,4]triazolo[1,5-a]pyrimidin-4(7H)-yl)acetamide] | > 7.00 | > 7.00
3 | CCc1c(N2CCN(C(=O)CNC(=O)C(C)(C)C)CC2)c(=O)n2nc(C3=CCOCC3)nc2n1CC(=O)Nc1ccc(C(F)(F)F)cc1Cl [Example 169, N-(2-(4-(4-(2-((2-Chloro-4-(trifluoromethyl)phenyl)amino)-2-oxoethyl)-2-(3,6-dihydro-2H-pyran-4-yl)-5-ethyl-7-oxo-4,7-dihydro-[1,2,4]triazolo[1,5-a]pyrimidin-6-yl)piperazin-1-yl)-2-oxoethyl)pivalamide] | > 7.00 | 6.00 to 7.00
4 | CCc1c(N2CCN(C(=O)CNc3nc(=O)c4ccccc4[nH]3)CC2)c(=O)n2nc(C3=CCOCC3)nc2n1CC(=O)Nc1ccc(C(F)(F)F)cc1Cl [Example 208, N-(2-Chloro-4-(trifluoromethyl)phenyl)-2-(2-(3,6-dihydro-2H-pyran-4-yl)-5-ethyl-7-oxo-6-(4-((4-oxo-1,4-dihydroquinazolin-2-yl)glycyl)piperazin-1-yl)-[1,2,4]triazolo[1,5-a]pyrimidin-4(7H)-yl)acetamide] | > 7.00 | > 7.00
5 | CCc1c(N2CCN(C(=O)CNC(=O)c3cccc(O)c3F)CC2)c(=O)n2nc(N3CCOCC3)nc2n1CC(=O)Nc1ccc(C(F)(F)F)cc1F [Example 252, N-(2-(4-(5-Ethyl-4-(2-((2-fluoro-4-(trifluoromethyl)phenyl)amino)-2-oxoethyl)-2-morpholino-7-oxo-4,7-dihydro-[1,2,4]triazolo[1,5-a]pyrimidin-6-yl)piperazin-1-yl)-2-oxoethyl)-2-fluoro-3-hydroxybenzamide] | > 7.00 | > 7.00
6 | CCc1c(N2CCN(c3noc4cccnc34)CC2)c(=O)n2nc(C3=CCOCC3)nc2n1CC(=O)Nc1ccc(C(F)(F)F)cc1Cl [Example 23, N-(2-Chloro-4-(trifluoromethyl)phenyl)-2-(2-(3,6-dihydro-2H-pyran-4-yl)-5-ethyl-6-(4-(isoxazolo[4,5-b]pyridin-3-yl)piperazin-1-yl)-7-oxo-[1,2,4]triazolo[1,5-a]pyrimidin-4 (7H)-yl)acetamide] | < 6.00 | < 6.00
7 | CCc1c(N2CCN(C(=O)CNC(=O)OC(C)(C)C)CC2)c(=O)n2nc(C3=CCOCC3)nc2n1CC(=O)Nc1ccc(C(F)(F)F)cc1Cl [Example 37, tert-Butyl (2-(4-(4-(2-((2-chloro-4-(trifluoromethyl)phenyl)amino)-2-oxoethyl)-2-(3,6-dihydro-2H-pyran-4-yl)-5-ethyl-7-oxo-4,7-dihydro-[1,2,4]triazolo[1,5-a]pyrimidin-6-yl)piperazin-1-yl)-2-oxoethyl)carbamate] | 6.00 to 7.00 | > 7.00
8 | CCc1c(N2CCN(C(=O)CNC(=O)c3ncco3)CC2)c(=O)n2nc(N3CCCOCC3)nc2n1CC(=O)Nc1ccc(C(F)(F)F)cc1F [Example 257, N-(2-(4-(5-Ethyl-4-(2-((2-fluoro-4-(trifluoromethyl)phenyl)amino)-2-oxoethyl)-2-(1,4-oxazepan-4-yl)-7-oxo-4,7-dihydro-[1,2,4]triazolo[1,5-a]pyrimidin-6-yl)piperazin-1-yl)-2-oxoethyl)oxazole-2-carboxamide] | 6.00 to 7.00 | 6.00 to 7.00

The next lines start with the values.

Row | pIC50 [1] | pIC50 [2] | SMILES
9 | > 7.00 | > 7.00 | CCc1c(N2CCN(C(=O)c3cnc4ccsc4c3O)CC2)c(=O)n2nc(C3=CCOCC3)nc2n1CC(=O)Nc1ccc(C(F)(F)F)cc1Cl [Example 45, N-(2-Chloro-4-(trifluoromethyl)phenyl)-2-(2-(3,6-dihydro-2H-pyran-4-yl)-5-ethyl-6-(4-(7-hydroxythieno[3,2-b]pyridine-6-carbonyl)piperazin-1-yl)-7-oxo-[1,2,4]triazolo[1,5-a]pyrimidin-4(7H)-yl)acetamide]
10 | > 7.00 | > 7.00 | CCc1c(N2CCN(C(=O)CNC(=O)c3cc(Cl)ccc3Cl)CC2)c(=O)n2nc(C3=CCOCC3)nc2n1CC(=O)Nc1ccc(C(F)(F)F)cc1Cl [Example 126, 2,5-Dichloro-N-(2-(4-(4-(2-((2-chloro-4-(trifluoromethyl)phenyl)amino)-2-oxoethyl)-2-(3,6-dihydro-2H-pyran-4-yl)-5-ethyl-7-oxo-4,7-dihydro-[1,2,4]triazolo[1,5-a]pyrimidin-6-yl)piperazin-1-yl)-2-oxoethyl)benzamide]
11 | 6.00 to 7.00 | 6.00 to 7.00 | CCc1c(N2CCN(C(=O)c3ccnc4cc[nH]c34)CC2)c(=O)n2nc(C3=CCOCC3)nc2n1CC(=O)Nc1ccc(Cl)cc1C(F)(F)F [Example 68, 2-(6-(4-(1H-Pyrrolo[3,2-b]pyridine-7-carbonyl)piperazin-1-yl)-2-(3,6-dihydro-2H-pyran-4-yl)-5-ethyl-7-oxo-[1,2,4]triazolo[1,5-a]pyrimidin-4(7H)-yl)-N-(4-chloro-2-(trifluoromethyl)phenyl)acetamide]
12 | 6.00 to 7.00 | > 7.00 | CCc1c(N2CCN(C(=O)c3cccc4cn[nH]c34)CC2)c(=O)n2nc(C3=CCOCC3)nc2n1CC(=O)Nc1ccc(C(F)(F)F)cc1Cl [Example 90, 2-(6-(4-(1H-Indazole-7-carbonyl)piperazin-1-yl)-2-(3,6-dihydro-2H-pyran-4-yl)-5-ethyl-7-oxo-[1,2,4]triazolo[1,5-a]pyrimidin-4(7H)-yl)-N-(2-chloro-4-(trifluoromethyl)phenyl)acetamide]
13 | > 7.00 | > 7.00 | CCc1c(N2CCN(C(=O)c3c(O)cc(C)oc3=O)CC2)c(=O)n2nc(C3=CCOCC3)nc2n1CC(=O)Nc1ccc(C(F)(F)F)cc1Cl [Example 4, N-(2-Chloro-4-(trifluoromethyl)phenyl)-2-(2-(3,6-dihydro-2H-pyran-4-yl)-5-ethyl-6-(4-(4-hydroxy-6-methyl-2-oxo-2H-pyran-3-carbonyl)piperazin-1-yl)-7-oxo-[1,2,4]triazolo[1,5-a]pyrimidin-4(7H)-yl)acetamide]
14 | > 7.00 | > 7.00 | CCc1c(N2CCN(C(=O)c3cnc4sc(Cl)nc4c3O)CC2)c(=O)n2nc(C3=CCOCC3)nc2n1CC(=O)Nc1ccc(C(F)(F)F)cc1F [Example 308, 2-(6-(4-(2-Chloro-7-hydroxythiazolo[5,4-b]pyridine-6-carbonyl)piperazin-1-yl)-2-(3,6-dihydro-2H-pyran-4-yl)-5-ethyl-7-oxo-[1,2,4]triazolo[1,5-a]pyrimidin-4(7H)-yl)-N-(2-fluoro-4-(trifluoromethyl)phenyl)acetamide]
